“And” between values parts separate entries of the source, which are not always exact repeats. Equal values may be shown once.
What was measured:
Assay type in all cases: cell-based
RARB mRNA = assay: Various anti-aging related mRNA expression experiment (qPCR), RARB; conditions: HFF-1 cells, 5 μg/mL HPR, 9 μg/mL retinyl propionate, alone or in combination, individual replicates
Procedure: (§1) RNA extraction: a cell sample was taken, a supernatant was removed, 1 mL of a TRIZON reagent was added into each well of a 6-well plate, the cells were stood, cracked, and transferred to a 1.5-mL EP tube, 0.2 mL of chloroform was added, and the mixture was shaken, uniformly mixed, stood on ice, and centrifuged at 12,000 rpm/min at 4° C. for 15 min; about 400 μL of an obtained supernatant was taken, isopropanol with the same volume was added, the mixture was lightly shaken, stood on ice at 4° C., and centrifuged at 12,000 rpm/min for 10 min; an obtained supernatant was removed, 1 mL of 75% ethanol was added into an obtained precipitate, an EP tube was shaken to float the precipitate to achieve a washing effect, the obtained product was centrifuged at 7,500 rpm/min at 4° C. for 10 min; an obtained supernatant was removed, a part of ethanol was left, the product was centrifuged at 7,500 rpm/min at 4° C. for 5 min, and residual ethanol was removed from the inner wall of the tube; and an obtained supernatant was removed, the liquid was aspirated, and a certain amount of RNA-free water was added for resuspension and dissolution. 2 μL of the product was analyzed on a SpectraMax iD3 multifunctional microplate reader for detecting the RNA concentration and A260/A280 value.
(§2) cDNA synthesis: the mRNA was subjected to reverse transcription into cDNA by using a HiFiScript cDNA synthesis kit.
(§3) Fluorescence quantification: the expression of the Elastin mRNA in the cell sample was detected by mixing an UltraSYBR Mixture premixed solution and the cDNA, and loading the mixture into a machine.
(§4) 3.1 Experimental content: an effect of 5 μg/mL of HPR and 9 μg/mL of retinyl propionate alone or in combination on expressions of collagen-related mRNAs in HFF-1 cells.
(§5) 3.2 Experimental method: the HFF-1 cells were seeded in a 96-well plate (3,000 cells/mL and […]) and administrated in a 5 μg/mL HPR group, a 9 μg/mL retinyl propionate group, and a 5 μg/mL HPR+9 μg/mL retinyl propionate group. A blank control was set at the same time. Total RNA of the cells was extracted at 24 h, 48 h, and 72 h and the expressions of the collagen-related mRNAs were detected by qPCR. (The specific operation steps referred to section 1.2)
(§6) 3.3 Experimental results: data was input by the Excel, subjected to statistical processing by a Prism (Version 7) software package, and expressed as meantstandard error. Each data was subjected to a one-way analysis of variance and p<0.05 was considered to be statistically different.

Col-IV mRNA = assay: Various anti-aging related mRNA expression experiment (qPCR), Col-IV; conditions: HFF-1 cells, 5 μg/mL HPR, 9 μg/mL retinyl propionate, alone or in combination, individual replicates
Procedure: as §1, §2, §3, §4, §5, §6

HFF-1 cells = assay: Cytotoxicity experiment (CCK-8 cell viability); conditions: 24 h, 5 μg/mL HPR, 9 μg/mL retinyl propionate, alone or in combination, individual replicates
Procedure: 2.1 Experimental content: an effect of 5 μg/mL of HPR and 9 μg/mL of retinyl propionate alone or in combination on the viability of HFF-1 cells.
2.2 Experimental method: the HFF-1 cells were seeded in a 96-well plate (3,000 cells/mL and 100 μL per well) and administrated in a 5 μg/mL HPR group, a 9 μg/mL retinyl propionate group, and a 5 μg/mL HPR+9 μg/mL retinyl propionate group. A blank control was set at the same time. The cell viability after 24 h of the administration treatment was detected using a CCK-8 kit.
2.3 Experimental results: data was input by the Excel, subjected to statistical processing by a Prism (Version 7) software package, and expressed as meantstandard error. Each data was subjected to a one-way analysis of variance and p<0.05 was considered to be statistically different.

CRBPI mRNA = assay: Various anti-aging related mRNA expression experiment (qPCR), CRBPI; conditions: HFF-1 cells, 5 μg/mL HPR, 9 μg/mL retinyl propionate, alone or in combination, individual replicates
Procedure: as §1, §2, §3, §4, §5, §6

Elastin mRNA = assay: Various anti-aging related mRNA expression experiment (qPCR), Elastin; conditions: HFF-1 cells, 5 μg/mL HPR, 9 μg/mL retinyl propionate, alone or in combination, individual replicates
Procedure: as §1, §2, §3, §4, §5, §6

CC1=C(/C=C/C(C)=C/C=C/C(C)=C/C(=O)OCC(=O)C(C)(C)C)C(C)(C)CCC1 [HPR, hydroxypinacolone retinoate]
RARB mRNA expression (blank control 1) (RARB mRNA; after 24 h): 1.079 and 3.732 and 5.063 | RARB mRNA expression (blank control 1) (RARB mRNA; after 48 h): 1.659 and 1.189 and 3.605 | RARB mRNA expression (blank control 1) (RARB mRNA; after 72 h): 2.395 and 1.042 and 4.925 | Col IV mRNA expression (blank control 1) (Col-IV mRNA; after 24 h): 1.357 and 1.014 and 1.223 | Col IV mRNA expression (blank control 1) (Col-IV mRNA; after 48 h): 1.474 and 1.094 and 1.945 | Col IV mRNA expression (blank control 1) (Col-IV mRNA; after 72 h): 1.165 and 1.265 and 0.9395 | viability of HFF-1 cells (blank control 100) (HFF-1 cells): 104.9 and 101.4 and 100.3 | CRBPI mRNA expression (blank control 1) (CRBPI mRNA; after 24 h): 3.223 and 1.094 and 1.597 | CRBPI mRNA expression (blank control 1) (CRBPI mRNA; after 48 h): 1.094 and 1.488 and 1.58 | CRBPI mRNA expression (blank control 1) (CRBPI mRNA; after 72 h): 4.017 and 1.79 and 3.295 | Elastin mRNA expression (blank control 1) (Elastin mRNA; after 24 h): 1.778 and 14.52 and 1.029 | Elastin mRNA expression (blank control 1) (Elastin mRNA; after 48 h): 2.928 and 2.809 and 3.317 | Elastin mRNA expression (blank control 1) (Elastin mRNA; after 72 h): 1.963 and 3.52 and 4.112

CCC(=O)OC/C=C(C)/C=C/C=C(C)/C=C/C1=C(C)CCCC1(C)C [retinyl propionate]
RARB mRNA expression (blank control 1) (RARB mRNA; after 24 h): 1.301 and 1.214 and 2.828 | RARB mRNA expression (blank control 1) (RARB mRNA; after 48 h): 1.301 and 1.602 and 1.079 | RARB mRNA expression (blank control 1) (RARB mRNA; after 72 h): 1.803 and 1.165 and 1.301 | Col IV mRNA expression (blank control 1) (Col-IV mRNA; after 24 h): 1 and 1.357 and 1.079 | Col IV mRNA expression (blank control 1) (Col-IV mRNA; after 48 h): 1.385 and 1.485 and 1.117 | Col IV mRNA expression (blank control 1) (Col-IV mRNA; after 72 h): 1.625 and 1.189 and 0.9794 | viability of HFF-1 cells (blank control 100) (HFF-1 cells): 100.2 and 100.8 and 95.66 | CRBPI mRNA expression (blank control 1) (CRBPI mRNA; after 24 h): 1.58 and 1.866 and 1.042 | CRBPI mRNA expression (blank control 1) (CRBPI mRNA; after 48 h): 1.275 and 1.647 (2×) | CRBPI mRNA expression (blank control 1) (CRBPI mRNA; after 72 h): 3.272 and 1.087 and 1.072 | Elastin mRNA expression (blank control 1) (Elastin mRNA; after 24 h): 1.778 and 16.11 and 1.157 | Elastin mRNA expression (blank control 1) (Elastin mRNA; after 48 h): 1.866 and 2.77 and 3.01 | Elastin mRNA expression (blank control 1) (Elastin mRNA; after 72 h): 5.736 and 6.727 and 1.275
